Source: patent US20080076772A1, “Anti-Inflammatory Agents” (Pharma Mar S.A. Sociedad Unipersonal, priority 2004, published 2008)

System: macrophage differentiation
Test: In vitro macrophage differentiation of monocytes with M-CSF (phenotype analysis)
Assay type: cell-based, human
Details: 1 nM, 5 days with M-CSF 20 ng/ml
Protocol: Expression of cell membrane markers was performed by immunofluoresce and analyzed by Flow Cytometry. Cells were incubated with anti-CD14, anti-CD16, anti-CD68, anti-CD206 (mannose receptor) and then with FITC-goat anti-mouse Ig as described. At least 10,000 cells were analyzed.
In order to study the effect of ecteinascidin 743 on macrophage differentiation, non cytotoxic doses of the drug were used. Monocytes were cultured with M-CSF (20 ng/ml) and with sub-cytotoxic concentrations of ecteinascidin 743 for 5 days. Phenotype analysis was performed by indirect immunofluorescence and analyzed in Flow Cytometry by gating on large cells. Usually, an average of 65±15% (mean±SD of>10 experiments) of input monocytes differentiate into large cells expressing typical macrophage markers, including CD16, CD68 and CD206 (mannose receptor). After 5 days of culture monocyte viability, evaluated by propidium iodide staining in flow cytometry, was 92% and 70% of untreated cells at 0.5 and 1 nM ecteinascidin 743, respectively.

## COc1cc2c(cc1O)CCN[C@]21CS[C@@H]2c3c(OC(C)=O)c(C)c4c(c3[C@H](COC1=O)N1[C@@H]2[C@H]2c3c(cc(C)c(OC)c3O)C[C@@H]([C@@H]1O)N2C)OCO4 [ecteinascidin 743]
  de novo expression of CD68, CD16 and CD206: reduced
